This test has as its target T1, β3GnT-7 (Homo sapiens, UniProt Q8NFL0).
T1 construct: made in house; host or cells: Sf21 insect cells (baculovirus, Bac-to-Bac); purified from culture supernatant on anti-M1 (anti-FLAG) resin
T1 sequence (Q8NFL0 75-401): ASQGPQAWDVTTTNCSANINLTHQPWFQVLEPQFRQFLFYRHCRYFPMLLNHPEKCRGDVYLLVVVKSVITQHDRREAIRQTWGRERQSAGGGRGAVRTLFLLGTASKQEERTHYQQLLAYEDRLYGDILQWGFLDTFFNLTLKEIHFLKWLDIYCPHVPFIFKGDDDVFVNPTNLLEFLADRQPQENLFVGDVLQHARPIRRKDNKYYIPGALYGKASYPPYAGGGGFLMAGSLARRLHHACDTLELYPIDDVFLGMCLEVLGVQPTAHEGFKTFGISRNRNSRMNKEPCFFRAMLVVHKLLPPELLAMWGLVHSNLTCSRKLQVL
Nature of the test: Search of acceptor substrate of β3Gn-T7 (UDP-[14C]GlcNAc transfer, TLC radioactivity). The class given is biochemical. The settings on record: acceptor substrate 10 nmol, donor UDP-GlcNAc 480 μM, 37° C. for 5 hours, pH7.2. From the text:
Using the following reaction systems, the acceptor substrate was searched. As the “acceptor substrate” in the reaction solution described below, each of the following was used and whether each of them functioned as the acceptor or not was investigated: pNp-α-Glc, pNp-β-Glc, pNp-α-GlcNAc, pNp-β-GlcNAc, pNp-α-Gal, pNp-β-Gal, pNp-α-GalNAc, Bz-α-GalNAc, pNp-α-Xyl, pNp-β-Xyl, pNp-α-Fuc, Bz-α-Man, Bz-α-ManNAc, LacCer, GalCer typel and Bz-β-lactoside (all of them are from SIGMA) and Galβ1-4GlcNAc-α-pNp (TRONTO RESEARCH CHEMICAL).
The reaction solution (the numbers in the parentheses indicate the final concentrations) contained acceptor substrate (10 nmol), sodium cacodylate buffer (pH7.2) (50 mM), Triton CF-54 (trademark) (0.4%), MnCl2 (10 mM), UDP-GlcNAC (480 μM) and UDP-[^14C]GlcNAC (175 nCi) and CDP-colline (5 mM), to which 10 μl of the β3Gn-T7 enzyme solution and H2O were added to attain a final volume of 25 μl.
The reaction mixture was allowed to react at 37° C. for 5 hours, and after completion of the reaction, 200 μl of 0.1 M KCl was added, followed by light centrifugation and collection of the supernatant. […] After developing the mixture up to 5 mm from the top end of the TLC plate, the plate was dried and the intensity of the radioactivity taken in the product was measured using Bio Image Analyzer FLA3000 (FUJI PHOTO FILM).

Consider `OC[C@H]1O[C@@H](O[C@H]2[C@H](O)[C@@H](O)[C@H](OCc3ccccc3)O[C@@H]2CO)[C@H](O)[C@@H](O)[C@H]1O` [Bz-β-lactoside], for which the “whether it functioned as the acceptor (transfer of GlcNAc by β3GnT-7)” value is “activity to transfer GlcNAc”.
For the molecule `CC(=O)N[C@H]1[C@@H](Oc2ccc([N+](=O)[O-])cc2)O[C@H](CO)[C@@H](O[C@@H]2O[C@H](CO)[C@H](O)[C@H](O)[C@H]2O)[C@@H]1O` [Galβ1-4Glc(NAc)-α-pNp, Galβ1-4GlcNAc-α-pNp], the “whether it functioned as the acceptor (transfer of GlcNAc by β3GnT-7)” value is on record as “activity to transfer GlcNAc”.

(Values after patent US7223580B2, “N-acetylglucosamine transferase, nucleic acid encoding the same and use thereof in diagnosing cancer and/or tumor” (National Institute of Advanced Industrial Science and …, priority 2002, dated 2007).)
